Reference: patent publication US20210230548A1, “NATURAL KILLER CELLS ENGINEERED TO EXPRESS CHIMERIC ANTIGEN RECEPTORS WITH IMMUNE CHECKPOINT BLOCKADE” (Board of Regents, The University of Texas System, priority 2018, published 2021)

Experiments:
[1] = tested on: iC9/CAR.19/IL-15 NK cells; experiment: Activation of suicide gene in vitro with dimerizer AP1903; format: cell-based
Description: (§1) Activation of suicide gene in vitro and validation in vivo: The small-molecule dimerizer AP1903 (10 nM), was added to CB-NK cell cultures for 4 h. The elimination of transduced cells was evaluated by Annexin-V/Live dead staining. The efficacy of the suicide gene was also tested in vivo by treating tumor-bearing mice that had received iC9/CAR.19/IL-15+ NK cells (control or CISH KO) with two doses of AP1903 (50 μg each) intraperitoneally, 2 days apart on days 7 and 9. Two other groups of mice (control and CISH KO) served as control without AP1903 treatment. All mice were sacrificed on day 12, and blood and organs (Liver, spleen and bone marrow) were collected, processed and flow cytometry was performed to determine CAR-NK fraction and viability.

[2] = tested on: iC9/CAR.19/IL-15 CB-NK cells; experiment: Suicide gene validation in vivo in Raji tumor-bearing mice; set-up: species or system mouse; settings: dimerizer on days 7 and 9 post NK infusion, sacrifice day 12; both control and CISH KO cells
Description: as §1

[3] = tested on: CISH locus; experiment: GUIDE-seq off-target identification in HEK293 cells constitutively expressing Cas9; format: cell-based; settings: GuideSeq
Description: Off-target Identification: The GUIDE-seq method was employed for unbiased discovery of off-target editing events (Tsai et al., 2015). In this study, HEK293 cells that constitutively express the S pyogenes Cas9 nuclease (“HEK293-Cas9” cells) were the source of Cas9. Alt-R® gRNA complexes were formed by combining Alt-R tracrRNA and Alt-R crRNA XT at a 1:1 molar ratio. gRNA complexes were delivered by nucleofection using the Amaxa™ Nucleofector™ 96-well Shuttle™ System (Lonza, Basel, Switzerland). For each nucleofection, 3.5×10^5 HEK293-Cas9 cells were washed with 1×PBS, resuspended in 20 μL solution SF (Lonza) and combined with 10 μM gRNA along with 0.5 μM GUIDE-seq dsDNA donor fragment. This mixture was transferred into one well of a Nucleocuvette™ Plate (Lonza) and electroporated using protocol 96-DS-150. DNA was extracted 72 hrs after electroporation using the GeneJET Genomic DNA purification kit (Thermo Fisher Scientific). NGS library preparation, sequencing, and operation of the GUIDE-seq software was performed as previously described except that Needleman-Wunch alignment was incorporated (Tsai et al., 2016).

| Compound | time to apoptosis of transduced NK cells ([1]; 10 nM) | apoptosis of transduced NK cells ([1]; 10 nM added to cultures) | reduction in iC9/CAR.19/IL-15 CB-NK cells in blood and tissues (liver, spleen, bone marrow) [2] | off-target sites / events [3] |
| --- | --- | --- | --- | --- |
| CC[C@H](C(=O)N1CCCC[C@H]1C(=O)O[C@H](CCc1ccc(OC)c(OC)c1)c1cccc(OCC(=O)NCCNC(=O)COc2cccc([C@@H](CCc3ccc(OC)c(OC)c3)OC(=O)[C@@H]3CCCCN3C(=O)[C@@H](CC)c3cc(OC)c(OC)c(OC)c3)c2)c1)c1cc(OC)c(OC)c(OC)c1 [AP1903] | ≤ 4 h | induced apoptosis of transduced NK cells | striking reduction |  |
| crRNA2: crRNA targeting CISH exon 4, sequence TGTACAGCAGTGGCTGGTGG (SEQ ID NO:2) (listed as DNA, chemistry not given here) |  |  |  | even higher frequencies of off-target events |
